Source: ChEMBL document CHEMBL4422619, “Continued exploration of 1,2,4-oxadiazole periphery for carbonic anhydrase-targeting primary arene sulfonamides: Discovery of subnanomolar inhibitors of membrane-bound hCA IX isoform that selectively kill cancer cells in hypoxic environment” (Eur J Med Chem, 2019)
The source made the active and inactive calls. No cut-off for these calls is given here.

How the values were obtained:
Carbonic anhydrase 1 = Carbonic anhydrase 1 (Homo sapiens, UniProt P00915); experiment: Inhibition of human carbonic anhydrase 1 assessed as reduction in CO2 hydration after 15 mins by phenol red staining-based stopped flow assay
Chain of Carbonic anhydrase 1 (P00915 whole entry): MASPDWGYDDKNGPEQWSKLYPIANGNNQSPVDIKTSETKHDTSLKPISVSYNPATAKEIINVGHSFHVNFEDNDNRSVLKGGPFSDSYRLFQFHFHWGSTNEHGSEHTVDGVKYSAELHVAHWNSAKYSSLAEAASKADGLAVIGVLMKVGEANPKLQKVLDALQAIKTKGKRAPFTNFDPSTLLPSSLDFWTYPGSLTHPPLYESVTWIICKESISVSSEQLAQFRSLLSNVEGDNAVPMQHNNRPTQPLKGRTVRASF

Carbonic anhydrase 9 = Carbonic anhydrase 9 (Homo sapiens, UniProt Q16790)
Description: Inhibition of human carbonic anhydrase 9 assessed as reduction in CO2 hydration after 15 mins by phenol red staining-based stopped flow assay

Carbonic anhydrase 12 = Carbonic anhydrase 12 (Homo sapiens, UniProt O43570);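 note: Stopped-flow CO2 hydration assay with phenol red indicator, 15 min, measuring inhibition of human CA XII enzymatic activity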
Chain of Carbonic anhydrase 12 (O43570 whole entry): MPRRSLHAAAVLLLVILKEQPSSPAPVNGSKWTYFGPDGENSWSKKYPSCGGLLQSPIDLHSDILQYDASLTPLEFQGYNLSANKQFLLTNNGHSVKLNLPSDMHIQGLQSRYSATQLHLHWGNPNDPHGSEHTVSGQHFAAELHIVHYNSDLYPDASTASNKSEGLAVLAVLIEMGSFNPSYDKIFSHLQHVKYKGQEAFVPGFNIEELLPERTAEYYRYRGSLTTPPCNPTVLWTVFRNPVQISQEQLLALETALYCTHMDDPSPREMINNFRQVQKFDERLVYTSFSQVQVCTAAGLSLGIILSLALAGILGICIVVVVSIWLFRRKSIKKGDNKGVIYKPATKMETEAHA
Description: Inhibition of human carbonic anhydrase 12 assessed as reduction in CO2 hydration after 15 mins by phenol red staining-based stopped flow assay

Carbonic anhydrase 2 = Carbonic anhydrase 2 (Homo sapiens, UniProt P00918); experiment: Inhibition of human carbonic anhydrase 2 assessed as reduction in CO2 hydration after 15 mins by phenol red staining-based stopped flow assay
PANC-1 [1] = experiment: Antiproliferative activity against human PANC1 cells at 30 to 300 uM after 48 hrs in presence of normoxic condition by MTT assay; assay type: functional, cell-based
ARPE-19 [2] = experiment: Antiproliferative activity against human ARPE19 cells at 30 to 300 uM after 48 hrs in presence of normoxic condition by MTT assay; assay type: cell-based; settings: arpe-19, 48 h
PANC-1 [3] = experiment: Antiproliferative activity against human PANC1 cells at 30 to 300 uM after 48 hrs in presence of hypoxic condition by MTT assay; assay type: functional, cell-based
ARPE-19 [4] = experiment: Antiproliferative activity against human ARPE19 cells at 30 to 300 uM after 48 hrs in presence of hypoxic condition by MTT assay; assay type: cell-based; settings: arpe-19, 48 h
PANC-1 [5] = experiment: Antiproliferative activity against human PANC1 cells after 48 hrs in presence of hypoxic condition by MTT assay; assay type: functional, cell-based
SK-MEL-2 [6] = experiment: Antiproliferative activity against human SK-MEL-2 cells after 48 hrs in presence of normoxic condition by MTT assay; assay type: functional, cell-based
SK-MEL-2 [7] = experiment: Antiproliferative activity against human SK-MEL-2 cells after 48 hrs in presence of hypoxic condition by MTT assay; assay type: functional, cell-based
PANC-1 [8] = experiment: Antiproliferative activity against human PANC1 cells after 48 hrs in presence of normoxic condition by MTT assay; assay type: functional, cell-based
ARPE-19 [9] = experiment: Antiproliferative activity against human ARPE19 cells at 300 uM after 48 hrs in presence of normoxic condition by MTT assay; assay type: cell-based; settings: arpe-19, 48 h
ARPE-19 [10] = experiment: Antiproliferative activity against human ARPE19 cells at 300 uM after 48 hrs in presence of hypoxic condition by MTT assay; assay type: cell-based; settings: arpe-19, 48 h
PANC-1 [11] = experiment: Antiproliferative activity against human PANC1 cells at 300 uM after 48 hrs in presence of normoxic condition by MTT assay; assay type: functional, cell-based
PANC-1 [12] = experiment: Antiproliferative activity against human PANC1 cells at 300 uM after 48 hrs in presence of hypoxic condition by MTT assay; assay type: functional, cell-based
ARPE-19 [13] = experiment: Antiproliferative activity against human ARPE19 cells at 30 uM after 48 hrs in presence of normoxic condition by MTT assay; assay type: cell-based; settings: arpe-19, 48 h
SK-MEL-2 [14] = experiment: Antiproliferative activity against human SK-MEL-2 cells at 300 uM after 48 hrs in presence of normoxic condition by MTT assay; assay type: functional, cell-based
SK-MEL-2 [15] = experiment: Antiproliferative activity against human SK-MEL-2 cells at 30 uM after 48 hrs in presence of hypoxic condition by MTT assay; assay type: functional, cell-based
SK-MEL-2 [16] = experiment: Antiproliferative activity against human SK-MEL-2 cells at 300 uM after 48 hrs in presence of hypoxic condition by MTT assay; assay type: functional, cell-based
SK-MEL-2 [17] = experiment: Antiproliferative activity against human SK-MEL-2 cells at 30 uM after 48 hrs in presence of normoxic condition by MTT assay; assay type: functional, cell-based
ARPE-19 [18] = experiment: Antiproliferative activity against human ARPE19 cells at 30 uM after 48 hrs in presence of hypoxic condition by MTT assay; assay type: cell-based; settings: arpe-19, 48 h
PANC-1 [19] = experiment: Antiproliferative activity against human PANC1 cells at 30 uM after 48 hrs in presence of normoxic condition by MTT assay; assay type: functional, cell-based
PANC-1 [20] = experiment: Antiproliferative activity against human PANC1 cells at 30 uM after 48 hrs in presence of hypoxic condition by MTT assay; assay type: functional, cell-based

SMILES	Ki (Carbonic anhydrase 1)	Ki (Carbonic anhydrase 9)	Ki (Carbonic anhydrase 12)	Ki (Carbonic anhydrase 2)	further results
NS(=O)(=O)c1ccc(-c2noc(-c3ccccn3)n2)cc1	37.5 nM	0.31 nM	9.5 nM	0.93 nM	–
COc1cc(S(N)(=O)=O)ccc1-c1noc(-c2ccc(C#N)cc2)n1	779 nM	274 nM	32.9 nM	593 nM	–
COc1cccc(-c2noc(-c3ccc(S(N)(=O)=O)cc3)n2)c1	–	243 nM	–	0.48 nM	–
NS(=O)(=O)c1ccc(-c2noc(-c3ccncc3)n2)cc1	48 nM	0.44 nM	8.2 nM	0.3 nM	–
NS(=O)(=O)c1cccc(-c2noc(C3CC3)n2)c1	–	–	–	–	Activity (PANC-1 [1]): Active; Activity (ARPE-19 [2]): Non-Toxic; Activity (PANC-1 [3]): Active; Activity (ARPE-19 [4]): Non-Toxic
COc1cc(S(N)(=O)=O)ccc1-c1noc(-c2ccccc2)n1	459 nM	13.1 nM	33.1 nM	8.8 nM	–
COc1cc(S(N)(=O)=O)ccc1-c1noc(-c2cccnc2)n1	1020 nM	12.1 nM	16.8 nM	271 nM	–
COc1cccc(-c2noc(-c3csc(S(N)(=O)=O)c3)n2)c1	5.4 nM	2.2 nM	33.6 nM	0.82 nM	Activity (PANC-1 [5]): Dose-dependent effect; Activity (SK-MEL-2 [6]): inactive; Activity (PANC-1 [1]): Active; Activity (SK-MEL-2 [7]): inactive; Activity (ARPE-19 [2]): Non-Toxic; Activity (PANC-1 [3]): Active; Activity (ARPE-19 [4]): Non-Toxic; Activity (PANC-1 [8]): Dose-dependent effect
Cc1nc(-c2csc(S(N)(=O)=O)c2)no1	8.1 nM	1.6 nM	10.1 nM	0.91 nM	–
NS(=O)(=O)c1cc(-c2nc(-c3ccccc3)no2)cs1	8.9 nM	0.24 nM	9.8 nM	1.7 nM	Activity (ARPE-19 [9]): Toxic; Activity (ARPE-19 [10]): Toxic; Activity (PANC-1 [11]): Active; Activity (PANC-1 [12]): Active
COc1cc(S(N)(=O)=O)ccc1-c1noc(-c2ccsc2)n1	1160 nM	15.9 nM	32.1 nM	92.1 nM	–
NS(=O)(=O)c1cccc(-c2noc(-c3ccsc3)n2)c1	–	–	–	–	Activity (ARPE-19 [13]): Non-Toxic; Activity (SK-MEL-2 [14]): inactive; Activity (ARPE-19 [9]): Toxic; Activity (SK-MEL-2 [15]): inactive; Activity (PANC-1 [1]): inactive; Activity (SK-MEL-2 [16]): inactive; Activity (SK-MEL-2 [17]): inactive; Activity (ARPE-19 [10]): Toxic; Activity (PANC-1 [3]): inactive; Activity (ARPE-19 [18]): Non-Toxic
COc1cc(S(N)(=O)=O)ccc1-c1noc(-c2cccs2)n1	–	15.9 nM	–	92.1 nM	–
NS(=O)(=O)c1ccc(-c2nc(-c3ccccc3)no2)cc1	–	6.7 nM	–	1.8 nM	–
NS(=O)(=O)c1cc(-c2noc(C3CC3)n2)cs1	53 nM	2.1 nM	9.2 nM	0.88 nM	–
COc1ccccc1-c1noc(-c2csc(S(N)(=O)=O)c2)n1	16.2 nM	0.13 nM	8.8 nM	0.64 nM	–
NS(=O)(=O)c1cc(-c2nc(C3CC3)no2)cs1	9.3 nM	0.089 nM	10.3 nM	0.75 nM	Activity (PANC-1 [19]): Active; Activity (ARPE-19 [13]): Non-Toxic; Activity (SK-MEL-2 [15]): Active; Activity (SK-MEL-2 [17]): Active; Activity (PANC-1 [20]): Active; Activity (ARPE-19 [18]): Non-Toxic
COc1ccccc1-c1noc(-c2ccc(S(N)(=O)=O)cc2)n1	–	21.1 nM	–	0.51 nM	–
NS(=O)(=O)c1ccc(-c2noc(-c3cccs3)n2)cc1	7.9 nM	0.36 nM	8.3 nM	0.39 nM	Activity (ARPE-19 [13]): Non-Toxic; Activity (SK-MEL-2 [14]): inactive; Activity (ARPE-19 [9]): Toxic; Activity (SK-MEL-2 [15]): inactive; Activity (PANC-1 [1]): inactive; Activity (SK-MEL-2 [16]): inactive; Activity (SK-MEL-2 [17]): inactive; Activity (ARPE-19 [10]): Toxic; Activity (PANC-1 [3]): inactive; Activity (ARPE-19 [18]): Non-Toxic
NS(=O)(=O)c1cc(-c2nc(-c3ccccn3)no2)cs1	25 nM	0.39 nM	8.5 nM	4.3 nM	Activity (ARPE-19 [13]): Non-Toxic; Activity (PANC-1 [5]): Dose-dependent effect; Activity (SK-MEL-2 [15]): inactive; Activity (SK-MEL-2 [17]): inactive; Activity (PANC-1 [3]): inactive; Activity (ARPE-19 [18]): Non-Toxic; Activity (ARPE-19 [4]): Non-Toxic; Activity (PANC-1 [8]): Dose-dependent effect
NS(=O)(=O)c1ccc(-c2noc(C3CC3)n2)cc1	7.8 nM	1.9 nM	97.1 nM	4.1 nM	–
